Measured values as given in PubChem BioAssay AID2060912 (Molecular Pharmacology Branch, DTP, NCI, 2025).
pIC50: −log10 of the molar value.

Test system: HUVEC/MSC spheroids viability
Assay: Human HUVEC/MSC cell line growth inhibition [KRAS2];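 for viability, T/C: percent of DMSO vehicle control luminescence so 100% = untreated viability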
Conditions: for pIC50: curve of first compound; for viability, T/C: stronger effect = lower value
Method in brief: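 Stroma-only multicellular spheroids, formed from HUVEC and human MSCs at passages </=5, received RAS-pathway inhibitors with or without a second targeted drug. Dosing followed half-log dilutions from clinically achievable levels.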

[1] = second compound 0.0316 µM, first compound 0.0316 µM
[2] = second compound 0.0316 µM, first compound 0.1 µM
[3] = second compound 0.1 µM, first compound 0.0316 µM
[4] = second compound 0.1 µM, first compound 0.1 µM
[5] = second compound 0.316 µM, first compound 0.0316 µM
[6] = second compound 0.316 µM, first compound 0.1 µM
[7] = second compound 1 µM, first compound 0.0316 µM
[8] = second compound 1 µM, first compound 0.1 µM
[9] = second compound 3.16 µM, first compound 0.0316 µM
[10] = second compound 3.16 µM, first compound 0.1 µM
[11] = second compound 10 µM, first compound 0.0316 µM
[12] = second compound 10 µM, first compound 0.1 µM
[13] = second compound 0.0316 µM, first compound 0.316 µM
[14] = second compound 0.0316 µM, first compound 1 µM
[15] = second compound 0.0316 µM, first compound 3.16 µM
[16] = second compound 0.0316 µM, first compound 10 µM
[17] = second compound 0.1 µM, first compound 0.316 µM
[18] = second compound 0.1 µM, first compound 1 µM
[19] = second compound 0.1 µM, first compound 3.16 µM
[20] = second compound 0.1 µM, first compound 10 µM
[21] = second compound 0.316 µM, first compound 0.316 µM
[22] = second compound 0.316 µM, first compound 1 µM
[23] = second compound 0.316 µM, first compound 3.16 µM
[24] = second compound 0.316 µM, first compound 10 µM
[25] = second compound 1 µM, first compound 0.316 µM
[26] = second compound 1 µM, first compound 1 µM
[27] = second compound 1 µM, first compound 3.16 µM
[28] = second compound 1 µM, first compound 10 µM
[29] = second compound 3.16 µM, first compound 0.316 µM
[30] = second compound 3.16 µM, first compound 1 µM
[31] = second compound 3.16 µM, first compound 3.16 µM
[32] = second compound 3.16 µM, first compound 10 µM
[33] = second compound 10 µM, first compound 0.316 µM
[34] = second compound 10 µM, first compound 1 µM
[35] = second compound 10 µM, first compound 3.16 µM
[36] = second compound 10 µM, first compound 10 µM

CC(C)n1nc(-c2ccc3oc(N)nc3c2)c2c(N)ncnc21 + CC1OCC2(CCN(c3cnc(Sc4ccnc(N)c4Cl)c(N)n3)CC2)C1N
pIC50 (second compound 0.0316 µM): 7.83 | pIC50 (second compound 0.1 µM): 8.08 | pIC50 (second compound 0.316 µM): 8.51 | pIC50 (second compound 1 µM): 8.62 | pIC50 (second compound 3.16 µM): 8.79 | pIC50 (second compound 10 µM): > 9.50 | viability, T/C (second compound 0.0316 µM, first compound 0.000316 µM): 108% | viability, T/C (second compound 0.0316 µM, first compound 0.001 µM): 95.2% | viability, T/C (second compound 0.0316 µM, first compound 0.00316 µM): 63.9% | viability, T/C (second compound 0.0316 µM, first compound 0.01 µM): 53.5% | viability, T/C [1]: 50.4% | viability, T/C [2]: 43.9% | viability, T/C (second compound 0.1 µM, first compound 0.000316 µM): 100% | viability, T/C (second compound 0.1 µM, first compound 0.001 µM): 93.8% | viability, T/C (second compound 0.1 µM, first compound 0.00316 µM): 63.3% | viability, T/C (second compound 0.1 µM, first compound 0.01 µM): 49.6% | viability, T/C [3]: 43.6% | viability, T/C [4]: 36.4% | viability, T/C (second compound 0.316 µM, first compound 0.000316 µM): 85% | viability, T/C (second compound 0.316 µM, first compound 0.001 µM): 81.3% | viability, T/C (second compound 0.316 µM, first compound 0.00316 µM): 49.2% | viability, T/C (second compound 0.316 µM, first compound 0.01 µM): 47.5% | viability, T/C [5]: 42.6% | viability, T/C [6]: 35.6% | viability, T/C (second compound 1 µM, first compound 0.000316 µM): 83.8% | viability, T/C (second compound 1 µM, first compound 0.001 µM): 71.2% | viability, T/C (second compound 1 µM, first compound 0.00316 µM): 43.4% | viability, T/C (second compound 1 µM, first compound 0.01 µM): 33.1% | viability, T/C [7]: 33.3% | viability, T/C [8]: 28.9% | viability, T/C (second compound 3.16 µM, first compound 0.000316 µM): 62.6% | viability, T/C (second compound 3.16 µM, first compound 0.001 µM): 60% | viability, T/C (second compound 3.16 µM, first compound 0.00316 µM): 36.5% | viability, T/C (second compound 3.16 µM, first compound 0.01 µM): 27.7% | viability, T/C [9]: 22% | viability, T/C [10]: 23.1% | viability, T/C (second compound 10 µM, first compound 0.000316 µM): 48.2% | viability, T/C (second compound 10 µM, first compound 0.001 µM): 41.8% | viability, T/C (second compound 10 µM, first compound 0.00316 µM): 22.3% | viability, T/C (second compound 10 µM, first compound 0.01 µM): 16.2% | viability, T/C [11]: 16.8% | viability, T/C [12]: 10.7%

COc1cc(Nc2ncc3c(n2)-c2ccc(Cl)cc2C(c2c(F)cccc2OC)=NC3)ccc1C(=O)O + CC1OCC2(CCN(c3cnc(Sc4ccnc(N)c4Cl)c(N)n3)CC2)C1N
pIC50 (second compound 0.0316 µM): < 5.00 | pIC50 (second compound 0.1 µM): < 5.00 | pIC50 (second compound 0.316 µM): < 5.00 | pIC50 (second compound 1 µM): 5.01 | pIC50 (second compound 3.16 µM): 5.03 | pIC50 (second compound 10 µM): 5.23 | viability, T/C [1]: 101% | viability, T/C [2]: 128% | viability, T/C [13]: 105% | viability, T/C [14]: 87.7% | viability, T/C [15]: 85.2% | viability, T/C [16]: 60.1% | viability, T/C [3]: 118% | viability, T/C [4]: 105% | viability, T/C [17]: 97.5% | viability, T/C [18]: 87.5% | viability, T/C [19]: 103% | viability, T/C [20]: 56.9% | viability, T/C [5]: 110% | viability, T/C [6]: 116% | viability, T/C [21]: 106% | viability, T/C [22]: 101% | viability, T/C [23]: 94.7% | viability, T/C [24]: 49.5% | viability, T/C [7]: 106% | viability, T/C [8]: 101% | viability, T/C [25]: 92.9% | viability, T/C [26]: 81.7% | viability, T/C [27]: 77.2% | viability, T/C [28]: 47.4% | viability, T/C [9]: 79.5% | viability, T/C [10]: 91% | viability, T/C [29]: 72.4% | viability, T/C [30]: 88.8% | viability, T/C [31]: 79.2% | viability, T/C [32]: 48.2% | viability, T/C [11]: 66.4% | viability, T/C [12]: 76% | viability, T/C [33]: 76% | viability, T/C [34]: 72.6% | viability, T/C [35]: 70.8% | viability, T/C [36]: 32.8%

COc1cc2nccc(Oc3ccc(NC(=O)C4(C(=O)Nc5ccc(F)cc5)CC4)cc3)c2cc1OC + CC1OCC2(CCN(c3cnc(Sc4ccnc(N)c4Cl)c(N)n3)CC2)C1N
pIC50 (second compound 0.0316 µM): 5.24 | pIC50 (second compound 0.1 µM): 5.34 | pIC50 (second compound 0.316 µM): 5.27 | pIC50 (second compound 1 µM): 5.39 | pIC50 (second compound 3.16 µM): 5.44 | pIC50 (second compound 10 µM): 5.51 | viability, T/C [1]: 111% | viability, T/C [2]: 87.5% | viability, T/C [13]: 79.3% | viability, T/C [14]: 103% | viability, T/C [15]: 73.7% | viability, T/C [16]: 27.6% | viability, T/C [3]: 96.5% | viability, T/C [4]: 93% | viability, T/C [17]: 100% | viability, T/C [18]: 80.8% | viability, T/C [19]: 66.5% | viability, T/C [20]: 17.4% | viability, T/C [5]: 88.6% | viability, T/C [6]: 89.9% | viability, T/C [21]: 67.9% | viability, T/C [22]: 83% | viability, T/C [23]: 75% | viability, T/C [24]: 19.6% | viability, T/C [7]: 72.6% | viability, T/C [8]: 75.6% | viability, T/C [25]: 82.4% | viability, T/C [26]: 80% | viability, T/C [27]: 62.3% | viability, T/C [28]: 8.31% | viability, T/C [9]: 72.5% | viability, T/C [10]: 79% | viability, T/C [29]: 77.5% | viability, T/C [30]: 62.6% | viability, T/C [31]: 58.6% | viability, T/C [32]: 5.57% | viability, T/C [11]: 67.8% | viability, T/C [12]: 72% | viability, T/C [33]: 73.2% | viability, T/C [34]: 61.9% | viability, T/C [35]: 50.7% | viability, T/C [36]: 3.16%
